This is an account of results in PubChem BioAssay (NCI).

Test systems include SR leukemia; SK-MEL-2 melanoma; HCC-2998 colon; MDA-MB-231 breast; CAKI-1 renal; SNB-19 CNS; A498 renal; ACHN renal; MOLT-4 leukemia; LOX IMVI melanoma.
Test in all cases: inhibition of tumour cell growth, NCI panel, 48 h

Several values for one entry are separate records, joined by “and”; a condition that tells them apart may be missing. Equal values may be shown once.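 48-hour exposure; five concentrations; linearly interpolated endpoints. At the GI50, growth is halved. The concentration for full growth arrest is given as TGI.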

For `Clc1nc(Cl)c2ncn(Cc3ccc(Cn4cnc5c(Cl)nc(Cl)nc54)cc3)c2n1`, the GI50 in the assay with SR leukemia was 0.287 µM; in the assay on SK-MEL-2 melanoma, 10.8 µM; in the assay with HCC-2998 colon it was 11 µM; with MDA-MB-231 breast, 3.23 µM; in the assay on CAKI-1 renal, 13.6 µM; in the assay with SNB-19 CNS, 76.2 µM. The GI50 with A498 renal was 7.48 µM; in the assay on ACHN renal, 5.16 µM; with MOLT-4 leukemia, 3.88 µM; with LOX IMVI melanoma, 0.96 µM. Further, the TGI is 8.08 µM in the assay on SR leukemia; 34.9 µM with SK-MEL-2 melanoma; 24 µM with HCC-2998 colon; 22.4 µM in the assay on MDA-MB-231 breast; 27.8 µM in the assay on CAKI-1 renal; over 100 µM in the assay with SNB-19 CNS. For the same compound, the TGI worked out at 50.2 µM in the assay on A498 renal, 20.4 µM in the assay with ACHN renal, 16.1 µM with MOLT-4 leukemia and 14.9 µM in the assay with LOX IMVI melanoma.

Turning to `CC(=O)Oc1ccc(C(c2ccc(OC(C)=O)cc2)c2ccccn2)cc1`, the GI50 with SR leukemia is over 100 µM; in the assay with SK-MEL-2 melanoma it was 43.1 µM; with HCC-2998 colon, 11.3 µM; in the assay with MDA-MB-231 breast, 48 µM; in the assay on CAKI-1 renal, 46.8 µM; in the assay on A498 renal, 8.9 µM. The GI50 with ACHN renal is 36.8 µM; in the assay with MOLT-4 leukemia it was 40.5 µM; with LOX IMVI melanoma it was 52.7 µM. Besides, the TGI in the assay with SR leukemia, in the assay on SK-MEL-2 melanoma, with HCC-2998 colon, with MDA-MB-231 breast, in the assay on CAKI-1 renal and in the assay on SNB-19 CNS was over 100 µM throughout. Besides, the TGI in the assay with A498 renal, in the assay with ACHN renal, in the assay with MOLT-4 leukemia and in the assay on LOX IMVI melanoma was over 100 µM each time.

Regarding `OCCN1CCN(CC/C=C2\c3ccccc3Sc3ccc(Cl)cc32)CC1`, the GI50 is 1.7 µM with SR leukemia; 2.75 µM and 2.26 µM with SK-MEL-2 melanoma; 1.99 µM and 1.68 µM with HCC-2998 colon; 2.62 µM and 2.09 µM with MDA-MB-231 breast; 2.31 µM and 2.6 µM in the assay with CAKI-1 renal; 2.45 µM and 4.49 µM in the assay on SNB-19 CNS. Further, the GI50 was 2.14 µM and 1.84 µM in the assay on A498 renal; 5.06 µM and 6.56 µM with ACHN renal; 1.76 µM and 2.91 µM in the assay with MOLT-4 leukemia; 1.96 µM and 1.65 µM in the assay on LOX IMVI melanoma. In addition, the TGI with SR leukemia is 4.59 µM; with SK-MEL-2 melanoma, 5.98 µM and 4.9 µM; in the assay on HCC-2998 colon, 3.8 µM and 3.16 µM; with MDA-MB-231 breast, 12 µM and 6.46 µM; with CAKI-1 renal, 10.4 µM and 8.18 µM; with SNB-19 CNS it was 6.43 µM and 10.4 µM. In addition, the TGI in the assay on A498 renal is 4.29 µM and 7.94 µM; with ACHN renal it was 17 µM and 17.9 µM; in the assay with MOLT-4 leukemia it was 4.03 µM and 8.54 µM; with LOX IMVI melanoma it was 3.89 µM and 3.13 µM.

With `COc1cc2c(c(OC3OC(CO)C(O)C(O)C3O)c1)C(=O)CC(c1ccc(O)cc1)O2` (centres undefined), the TGI in the assay with SR leukemia, with SK-MEL-2 melanoma, with HCC-2998 colon, with MDA-MB-231 breast, in the assay on CAKI-1 renal and with SNB-19 CNS was over 100 µM each time. Moreover, the TGI in the assay with A498 renal, in the assay with ACHN renal, in the assay on MOLT-4 leukemia and with LOX IMVI melanoma was over 100 µM throughout.

Regarding `Oc1ccc(Cl)cc1CNc1nc2ccccc2[nH]1`, the GI50 was 13.4 µM with SR leukemia; 15.9 µM in the assay with SK-MEL-2 melanoma; 16.5 µM in the assay on HCC-2998 colon; 8.31 µM in the assay on MDA-MB-231 breast; 11.4 µM in the assay on CAKI-1 renal; 14.4 µM in the assay on SNB-19 CNS. The GI50 was 0.141 µM with A498 renal, 13.8 µM in the assay with ACHN renal, 10.7 µM with MOLT-4 leukemia and 13.7 µM with LOX IMVI melanoma. Also, the TGI with SR leukemia worked out at 59.4 µM; with SK-MEL-2 melanoma, 33 µM; in the assay on HCC-2998 colon, 32 µM; in the assay on MDA-MB-231 breast it was 22.4 µM; in the assay on CAKI-1 renal, 28.1 µM; in the assay with SNB-19 CNS, 40.3 µM. The TGI with A498 renal is 18.2 µM; with ACHN renal, 35.8 µM; with MOLT-4 leukemia, over 100 µM; in the assay on LOX IMVI melanoma, 28.8 µM.

With `C=C1c2c(Cl)ccc(O)c2C(O)=C2C(=O)[C@]3(O)C(O)=C(C(N)=O)C(=O)[C@@H](N(C)C)[C@@H]3[C@@H](O)[C@H]12`, the GI50 in the assay with SR leukemia was 1.58 µM; in the assay with SK-MEL-2 melanoma, 0.727 µM; in the assay with HCC-2998 colon it was 1.32 µM; with MDA-MB-231 breast, 1.07 µM; in the assay on CAKI-1 renal it was 0.499 µM; with SNB-19 CNS, 1.44 µM. The GI50 in the assay on A498 renal is 0.663 µM; in the assay with ACHN renal, 1.37 µM; in the assay with MOLT-4 leukemia, 1.89 µM; in the assay on LOX IMVI melanoma, 0.924 µM. Also, the TGI in the assay with SR leukemia is over 50 µM; in the assay with SK-MEL-2 melanoma, 1.98 µM; with HCC-2998 colon it was 5.61 µM; in the assay on MDA-MB-231 breast, 2.93 µM; in the assay on CAKI-1 renal, 3.4 µM; with SNB-19 CNS it was over 50 µM. Besides, the TGI in the assay with A498 renal was 4.09 µM; in the assay on ACHN renal, over 50 µM; in the assay on MOLT-4 leukemia it was 12.3 µM; in the assay with LOX IMVI melanoma it was 3.59 µM.
